# In publication PMC7567792, “GPAHex-A synthetic biology platform for Type IV–V glycopeptide antibiotic production and discovery” (Nature Communications, 2020):
# Tests used:
# [1] = amide linkage changed to an ester; cited from earlier work
# Text: Glycopeptide antibiotics (GPAs), such as vancomycin and teicoplanin (Fig. 1a), are microbial natural products (NPs) that are essential for the control of infections caused by Gram-positive pathogens. Vancomycin and teicoplanin inhibit bacterial cell wall biosynthesis by binding to the D-Alanine-D-Alanine terminating dipeptide of growing peptidoglycan and its extracellular precursors. Like all antibiotics, GPAs are vulnerable to resistance. Vancomycin resistance occurs through reprogramming of cell wall biosynthesis, mediated by a vanRSHAX resistance cassette that replaces the D-Ala-D-Ala te ...
# [2] = system: Vancomycin intermediate MRSA Mu50; format: cell-based, S. aureus; conditions: Mueller-Hinton Broth
# Protocol: (§1) Antibiotic susceptibility was tested using standard procedures in Mueller-Hinton Broth for most strains. Enterococcus strains were grown in Brain Heart Infusion media (BHI; BD Biosciences). Streptomyces MICs were determined in Bennett’s media (10 g potato starch, 2 g casamino acids, 1.8 g yeast extract, 0.2 g KCl, 0.2 g MgSO4·7H2O, 0.24 g NaNO3, 4 mg FeSO4·7H2O, 1 L ddH2O, pH 6.8).
# MRSA USA300 = format: cell-based, S. aureus; conditions: Mueller-Hinton Broth
# Protocol: as §1
# hVISA MRSA Mu3 = format: cell-based, S. aureus; conditions: Mueller-Hinton Broth
# Protocol: as §1
# B. subtilis 168 [3] = format: cell-based; conditions: Mueller-Hinton Broth
# Protocol: as §1
# S. aureus ATCC29213 = format: cell-based; conditions: Mueller-Hinton Broth
# Protocol: as §1
# E. coli BW25113 = format: cell-based; conditions: Mueller-Hinton Broth
# Protocol: as §1
# E. faecium ATCC29212 = format: cell-based; conditions: Brain Heart Infusion media
# Protocol: as §1
# [4] = system: E. faecium ATCC51299 (VREB); format: cell-based; conditions: Brain Heart Infusion media
# Protocol: as §1
# [5] = system: E. coli BW25113ΔbamBΔtolC; format: cell-based; conditions: Mueller-Hinton Broth
# Protocol: as §1
# S. venezuelae ATCC10712 = format: cell-based; conditions: Bennett's media
# Protocol: as §1
# [6] = system: E. faecium ATCC70022 (VREA); format: cell-based; conditions: Brain Heart Infusion media
# Protocol: as §1
# E. faecium ATCC19434 = format: cell-based; conditions: Brain Heart Infusion media
# Protocol: as §1
# [7] = system: S. coelicolor M1154/pAMX4/pGP6738; experiment: MIC, antibiotic susceptibility testing; format: cell-based; conditions: Bennett's media
# Protocol: as §1
# S. coelicolor M1154 = experiment: MIC, antibiotic susceptibility testing; format: cell-based; conditions: Bennett's media
# Protocol: as §1
# LytD = experiment: Peptidoglycan autolysin digestion in vitro, LytD; format: biochemical, B. subtilis 168; conditions: LytD 10 µg/mL, 1 mg/mL B. subtilis PG, 200 mM NaCl, 50 mM MES-NaOH pH 5.5, 30 min preincubation, OD600, 37 °C, triplicate
# Protocol: (§2) The muramidase mutanolysin was purchased from Sigma. The glucosaminidase domain from LytD was cloned from B. subtilis 168 into pET28 between NcoI and XhoI restriction sites for introduction of C-term 6× His. Construct was expressed from E. coli BL21(DE3) pLysS by inoculating 1 L of LB media 1:50 from an overnight culture, then growing at 37 °C until OD600 reached 0.6, at which time the cells were induced with 1 mM IPTG and grown for 18 h at 16 °C. Native LytD-6× His was purified by Ni-NTA affinity chromatography and cation exchange chromatography. Protein purity was >95% as assessed by SDS-PAGE analysis.
# (§3) B. subtilis peptidoglycan for binding and digestion assays was prepared by harvesting the cells (OD600 0.6–0.7), boiled in 4% SDS, and washed and sonicated to break up sacculi, followed by α-amylase and DNase treatment, and digested with pronase overnight. The peptidoglycan was boiled in 2% SDS again, washed, and teichoic acids were hydrolysed with 1 M HCl. The peptidoglycan was washed with water to pH 6.0 and lyophilized to use. Peptidoglycan was digested under optimized conditions with either mutanolysin (20 µg/mL, 1 mg/mL PG, 20 mM sodium acetate, pH 6.5) or LytD (10 µg/mL, 1 mg/mL PG, 200 mM NaCl, 50 mM MES-NaOH, pH 5.5). […] The plate was covered with a clear, breathable film to prevent evaporation, and OD600 was tracked on a Tecan sunrise microplate reader shaking at 37 °C.
# [8] = Peptidoglycan binding assay; parameters: species or system B. subtilis; conditions: 0.1 mg/mL GP6738 in water with 20% DMSO, PG 25:1 to 200:1 w/w, 1–2 h at 37 °C, unbound compound by HPLC
# Protocol: To assess peptidoglycan binding, GP6738 was diluted to 0.1 mg/mL in water with 20% (v/v) DMSO to aid GP6738 solubility. For each 100 μL binding assay, B. subtilis peptidoglycan was added to 0 mg/mL, 2.5 mg/mL, 5 mg/mL, 10 mg/mL or 20 mg/mL for 0, 25:1, 50:1, 100:1 and 200:1 w/w ratios, respectively. Mixtures were incubated for 1–2 h at 37 °C, then centrifuged for 10 min to thoroughly pellet insoluble material, and the supernatant was removed for analysis. Samples were prepared for HPLC analysis by the addition of NH4OH to 0.01% (v/v), and 50 µL was injected on the HPLC. Analysis was performed using a Thermo Hypersil GOLD aQ C18 4.6 × 150 mm column and the following gradient at 0.8 mL/min, 40 °C: t = 0–2 min 0% solvent B, t = 10–13 min 65% solvent B, t = 14 min 0% solvent B (solvent A: 0.01% v/v NH4OH in water [pH 9.6] and solvent B: ACN).
# mutanolysin = experiment: Peptidoglycan autolysin digestion in vitro, mutanolysin; format: biochemical; conditions: mutanolysin 20 µg/mL, 1 mg/mL B. subtilis PG, 20 mM sodium acetate pH 6.5, 30 min preincubation, OD600, 37 °C, triplicate
# Protocol: as §2, §3
# [9] = system: panel of indicator strains; experiment: MIC determination against a panel of indicator strains, comparison of Type V GPAs; format: cell-based
# Protocol: as §1
# B. subtilis 168 [10] = experiment: Cell lysis assay / growth tracking (OD600); format: cell-based
# Protocol: Early exponential phase B. subtilis 168 (OD600 ~0.25) grown in LB media was dispensed 100 µL per well into a round bottom 96 well plate. Antibiotics were supplemented to the appropriate concentration, and where appropriate lytic agents were added (50 µg/mL fosfomycin, 100 µg/mL ampicillin, 100 mM sodium azide). The plate was covered with a clear, breathable film and OD600 was monitored on a Tecan sunrise microplate reader at 37 °Cwith shaking.
# B. subtilis 168 [11] = experiment: Brightfield microscopy of cell morphology at sub-MIC; format: cell-based; conditions: B. subtilis 168 grown with sub-MIC (0.6× MIC, 3.2 µg/mL GP6738) to mid-log phase
# Bacillus subtilis 168 = experiment: Antibacterial activity assay (bioassay) of fermentation extracts; format: cell-based; conditions: B. subtilis 168
# Text: Supplementary Fig. 4. Bioassay of corbomycin heterologous expression extracts against B. subtilis 168. Crude extracts from S. coelicolor M1154/pGP1529 strain do […]
# from S. coelicolor M1154/pAMX4/pGP1529. […]
# parental strain S. sp. WAC01529 are likely the result of uncharacterized compounds produced by this strain, as equivalent amounts of purified corbomycin as are present […]
# Source data are provided as a Source Data file.
# (1 picture or pasted object on this page, not shown here)
Compound,MIC [2],MIC (MRSA USA300),MIC (hVISA MRSA Mu3),MIC (B. subtilis 168 [3]),MIC (S. aureus ATCC29213),MIC (E. coli BW25113),MIC (E. faecium ATCC29212),MIC [4],MIC [5],MIC (S. venezuelae ATCC10712),MIC [6],MIC (E. faecium ATCC19434),MIC [7],MIC (S. coelicolor M1154),other results
CN[C@H](CC(C)C)C(=O)N[C@H]1C(=O)N[C@@H](CC(N)=O)C(=O)N[C@H]2C(=O)N[C@H]3C(=O)N[C@H](C(=O)N[C@H](C(=O)O)c4cc(O)cc(O)c4-c4cc3ccc4O)[C@H](O)c3ccc(c(Cl)c3)Oc3cc2cc(c3O[C@@H]2O[C@H](CO)[C@@H](O)[C@H](O)[C@H]2O[C@H]2C[C@](C)(N)[C@H](O)[C@H](C)O2)Oc2ccc(cc2Cl)[C@H]1O [Vancomycin],8 µg/mL,1 µg/mL,2 µg/mL,0.25 µg/mL,1 µg/mL,256 µg/mL,2 µg/mL,32 µg/mL,8 µg/mL,0.25 µg/mL,> 256 µg/mL,2 µg/mL,256 µg/mL,256 µg/mL,decrease of affinity of vancomycin on change of D-Ala-D-Ala to D-Ala-D-Lactate [1]: 1000 fold
Complestatin,0.5 µg/mL,2 µg/mL,0.5 µg/mL,0.5 µg/mL,2 µg/mL,> 256 µg/mL,32 µg/mL,32 µg/mL,64 µg/mL,2 µg/mL,64 µg/mL,64 µg/mL,,4 µg/mL,
CC(C)C(NC(=O)C(NC(=O)C(N)c1cc(O)cc(O)c1)c1cc(O)cc(O)c1)C(=O)NC1Cc2c[nH]c3cc(ccc23)-c2cc3cc(c2O)Oc2ccc(cc2)CC(C(=O)NC(C(=O)O)c2cc(O)cc(O)c2)NC(=O)C(c2cc(O)cc(O)c2)NC(=O)C3NC(=O)C(c2cc(O)cc(O)c2)NC1=O (stereo not shown) [GP6738],2 to 4 µg/mL,4 µg/mL,4 µg/mL,4 µg/mL,4 µg/mL,> 256 µg/mL,64 µg/mL,64 µg/mL,> 256 µg/mL,16 µg/mL,64 µg/mL,64 µg/mL,16 µg/mL,16 µg/mL,"block of peptidoglycan digestion by LytD (LytD): blocks cell wall digestion; binding to peptidoglycan [8]: binding to peptidoglycan; block of peptidoglycan digestion by mutanolysin (mutanolysin): blocks cell wall digestion; fold higher MIC of GP6738 compared to corbomycin [9]: 2–16 fold; bacteriostatic or bacteriolytic effect, growth tracking (B. subtilis 168 [10]; B. subtilis 168, 10-fold MIC, OD600, 37 °C, n = 3): bacteriostatic phenotype; block of cell lysis induced by lytic agents (B. subtilis 168 [10]; B. subtilis 168, 10× MIC, 50 µg/mL fosfomycin, 100 µg/mL ampicillin or 100 mM sodium azide, OD600, n = 3): able to block cell lysis; cell morphology (B. subtilis 168 [11]): characteristic elongated cell morphology of autolysin inhibition"
Corbomycin,1 µg/mL,1 µg/mL,1 µg/mL,1 µg/mL,1 µg/mL,> 256 µg/mL,4 µg/mL,4 µg/mL,32 µg/mL,2 µg/mL,4 µg/mL,4 µg/mL,4 µg/mL,4 µg/mL,growth inhibition / zones of inhibition (Bacillus subtilis 168): do not give zones
